Key:
Aminopeptidase N [1] = target: T1, Aminopeptidase N (Homo sapiens, UniProt P15144); experiment: Binding affinity towards aminopeptidase N
[2] = target: T2, Matrix metalloproteinase-9 (Homo sapiens, UniProt P14780); experiment: Inhibition of human matrix metalloprotease-9 expressed in Sf9 insect cells; NA:Not active
[3] = target: T3, Matrix metalloproteinase-14 (Homo sapiens, UniProt P50281); experiment: Inhibitory concentration against matrix metalloprotease-14 in Escherichia coli was determined; NA:Not active
Aminopeptidase N [4] = target: T1, Aminopeptidase N; experiment: Inhibitory concentration against aminopeptidase N
[5] = target: 72 kDa type IV collagenase (Homo sapiens, UniProt P08253); experiment: Inhibition of human matrix metalloprotease-2 expressed in Sf9 insect cells; NA:Not active
Sequence of 72 kDa type IV collagenase (P08253 whole entry): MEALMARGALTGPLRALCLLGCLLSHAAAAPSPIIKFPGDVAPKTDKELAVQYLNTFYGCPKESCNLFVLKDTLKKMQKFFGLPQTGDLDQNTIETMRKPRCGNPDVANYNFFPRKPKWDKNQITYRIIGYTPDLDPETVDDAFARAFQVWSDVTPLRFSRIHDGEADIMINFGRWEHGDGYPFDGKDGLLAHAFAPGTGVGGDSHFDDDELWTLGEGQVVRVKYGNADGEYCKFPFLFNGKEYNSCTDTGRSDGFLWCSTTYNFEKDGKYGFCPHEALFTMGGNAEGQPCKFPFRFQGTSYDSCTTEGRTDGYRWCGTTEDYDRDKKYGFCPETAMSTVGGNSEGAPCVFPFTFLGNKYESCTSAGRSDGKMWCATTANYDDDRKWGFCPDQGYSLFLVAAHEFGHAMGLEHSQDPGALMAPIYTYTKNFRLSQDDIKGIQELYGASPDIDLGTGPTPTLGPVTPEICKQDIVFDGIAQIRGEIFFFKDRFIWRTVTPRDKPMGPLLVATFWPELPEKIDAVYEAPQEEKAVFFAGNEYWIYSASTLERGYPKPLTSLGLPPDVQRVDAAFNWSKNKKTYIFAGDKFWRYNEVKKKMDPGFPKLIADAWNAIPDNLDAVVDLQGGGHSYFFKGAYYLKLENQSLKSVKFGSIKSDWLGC

[6] = target: T3, Matrix metalloproteinase-14; experiment: Inhibition of human matrix metalloprotease-14 expressed in Escherichia coli
[7] = target: T2, Matrix metalloproteinase-9; experiment: Inhibition of human matrix metalloprotease-9 expressed in Sf9 insect cells

T1 sequence (P15144 whole entry): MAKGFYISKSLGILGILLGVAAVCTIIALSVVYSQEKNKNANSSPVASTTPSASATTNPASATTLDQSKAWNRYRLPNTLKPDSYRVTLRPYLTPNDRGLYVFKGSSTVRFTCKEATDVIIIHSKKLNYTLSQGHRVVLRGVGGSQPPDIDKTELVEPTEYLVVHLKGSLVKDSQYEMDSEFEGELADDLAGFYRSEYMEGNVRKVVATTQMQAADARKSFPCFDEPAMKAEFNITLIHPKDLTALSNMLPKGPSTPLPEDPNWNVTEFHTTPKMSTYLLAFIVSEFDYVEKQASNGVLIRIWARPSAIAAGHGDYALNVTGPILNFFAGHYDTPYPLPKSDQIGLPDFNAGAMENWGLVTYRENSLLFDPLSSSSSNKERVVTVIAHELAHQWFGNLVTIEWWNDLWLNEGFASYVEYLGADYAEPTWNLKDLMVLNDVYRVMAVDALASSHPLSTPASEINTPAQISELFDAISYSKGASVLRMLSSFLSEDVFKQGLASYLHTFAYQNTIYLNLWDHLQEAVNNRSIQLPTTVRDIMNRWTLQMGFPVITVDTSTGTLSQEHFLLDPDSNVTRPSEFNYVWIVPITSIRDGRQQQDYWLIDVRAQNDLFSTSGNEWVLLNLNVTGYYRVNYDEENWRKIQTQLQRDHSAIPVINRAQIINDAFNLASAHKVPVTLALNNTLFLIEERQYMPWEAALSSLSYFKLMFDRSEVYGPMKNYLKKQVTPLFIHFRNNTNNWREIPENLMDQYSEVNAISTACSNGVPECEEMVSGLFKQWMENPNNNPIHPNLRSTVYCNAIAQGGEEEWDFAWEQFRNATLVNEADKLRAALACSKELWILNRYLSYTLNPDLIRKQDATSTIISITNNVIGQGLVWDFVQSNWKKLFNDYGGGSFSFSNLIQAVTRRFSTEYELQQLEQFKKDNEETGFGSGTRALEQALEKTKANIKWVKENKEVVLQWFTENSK
T2 sequence (P14780 whole entry): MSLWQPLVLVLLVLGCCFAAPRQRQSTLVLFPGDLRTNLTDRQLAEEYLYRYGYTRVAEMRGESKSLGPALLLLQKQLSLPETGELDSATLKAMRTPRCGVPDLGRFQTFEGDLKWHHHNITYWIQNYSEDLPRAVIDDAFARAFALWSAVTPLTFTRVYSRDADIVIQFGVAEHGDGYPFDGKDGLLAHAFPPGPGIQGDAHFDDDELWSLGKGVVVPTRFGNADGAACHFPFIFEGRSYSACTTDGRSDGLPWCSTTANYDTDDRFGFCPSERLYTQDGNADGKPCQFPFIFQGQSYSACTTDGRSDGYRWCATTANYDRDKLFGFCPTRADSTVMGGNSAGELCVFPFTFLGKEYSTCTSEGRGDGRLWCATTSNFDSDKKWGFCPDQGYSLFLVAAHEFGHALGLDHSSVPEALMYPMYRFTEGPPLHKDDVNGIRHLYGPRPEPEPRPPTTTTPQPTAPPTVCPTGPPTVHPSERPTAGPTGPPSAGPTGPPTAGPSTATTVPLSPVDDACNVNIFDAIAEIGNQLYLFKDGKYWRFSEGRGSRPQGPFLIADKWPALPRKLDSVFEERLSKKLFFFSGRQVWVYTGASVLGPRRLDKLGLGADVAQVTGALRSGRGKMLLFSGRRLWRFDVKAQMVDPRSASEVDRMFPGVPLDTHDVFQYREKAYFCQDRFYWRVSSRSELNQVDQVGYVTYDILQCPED

Ki (Aminopeptidase N [1])	IC50 [2]	IC50 [3]	IC50 (Aminopeptidase N [4])	IC50 [5]	IC50 [6]	IC50 [7]	SMILES
3.5 µM	Not Active	Not Active	3.4 µM	Not Active	–	–	O=C(CSc1ccc2ccccc2c1)NO
–	–	–	–	–	47 nM	25 nM	CNC(=O)[C@H](Cc1ccccc1)NC(=O)[C@H](CC(C)C)[C@H](CSc1cccs1)C(=O)NO [BATIMASTAT]
